In patent US20260262643A1, “HERBICIDAL BENZOXAZINES” (FMC CORPORATION, priority 2022, published 2026):

How the values were obtained:
[1] = tested on: corn; test: Test C postemergence; type: in vivo, Zea mays; conditions: 10 days
How it was run: (§1)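 Pre: seeds in loam/sand, directed soil spray. Post: 1–2 leaf plants, 2–10 cm. Cmpd in non-phytotoxic solvent + surfactant. Greenhouse 10 d; visual rating vs untreated, 0 = none, 100 = complete control.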

[2] = tested on: ducksalad; test: Test D flooded paddy test; type: in vivo, Heteranthera limosa; conditions: 250 g ai/ha, applied to paddy water, visual rating after 13 to 14 days, scale 0 to 100 (0 no effect, 100 complete control)
How it was run: (§2)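 2-leaf plants; flood 3 cm above soil; compound dosed into paddy water; greenhouse 13–14 d; visual rating vs controls, 0–100 (100 = complete control); dash = not tested.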

[3] = tested on: ryegrass, Italian; test: Test C postemergence; type: in vivo, Lolium multiflorum; conditions: 10 days
How it was run: as §1

[4] = tested on: ragweed; test: Test C postemergence; type: in vivo, Ambrosia artemisiifolia; conditions: 10 days
How it was run: as §1

[5] = tested on: wheat; test: Test C preemergence; type: in vivo, Triticum aestivum; conditions: 0 to 100 scale (0 no effect, 100 complete control); for Plant response rating, Wheat: Preemergence, 500 g ai/ha, visual rating after 10 days; for Wheat plant response rating: Test C, preemergence, 125 g ai/ha
How it was run: as §1

[6] = tested on: pigweed, palmer; test: Test C preemergence; type: in vivo, Amaranthus palmeri; conditions: 0 to 100 scale (0 no effect, 100 complete control); for Plant response rating, Pigweed, Palmer: Preemergence, 500 g ai/ha, visual rating after 10 days; for Pigweed, Palmer plant response rating: Test C, preemergence, 125 g ai/ha
How it was run: as §1

[7] = tested on: blackgrass; test: Test C preemergence; type: in vivo, Alopecurus myosuroides; conditions: 0 to 100 scale (0 no effect, 100 complete control); for Plant response rating, Blackgrass: Preemergence, 500 g ai/ha, visual rating after 10 days; for Blackgrass plant response rating: Test C, preemergence, 125 g ai/ha
How it was run: as §1

[8] = tested on: oat, wild; test: Test C postemergence; type: in vivo, Avena fatua; conditions: 10 days
How it was run: as §1

[9] = tested on: green foxtail; test: Test C preemergence; type: in vivo, Setaria viridis; conditions: 0 to 100 scale (0 no effect, 100 complete control); for Plant response rating, Foxtail, Green: Preemergence, 500 g ai/ha, visual rating after 10 days; for Foxtail, Green plant response rating: Test C, preemergence, 125 g ai/ha
How it was run: as §1

[10] = tested on: kochia; test: Test C postemergence; type: in vivo, Bassia scoparia; conditions: 10 days
How it was run: as §1

[11] = tested on: corn; test: Test C preemergence; type: in vivo, Zea mays; conditions: 0 to 100 scale (0 no effect, 100 complete control); for Plant response rating, Corn: Preemergence, 500 g ai/ha, visual rating after 10 days; for Corn plant response rating: Test C, preemergence, 125 g ai/ha
How it was run: as §1

[12] = tested on: barnyardgrass; test: Test C preemergence; type: in vivo, Echinochloa crusgalli; conditions: 0 to 100 scale (0 no effect, 100 complete control); for Plant response rating, Barnyardgrass: Preemergence, 500 g ai/ha, visual rating after 10 days; for Barnyardgrass plant response rating: preemergence, 125 g ai/ha
How it was run: as §1

[13] = tested on: sedge, umbrella; test: Test D flooded paddy test; type: in vivo, Cyperus difformis; conditions: 250 g ai/ha, applied to paddy water, visual rating after 13 to 14 days, scale 0 to 100 (0 no effect, 100 complete control)
How it was run: as §2

[14] = tested on: blackgrass; test: Test C postemergence; type: in vivo, Alopecurus myosuroides; conditions: 10 days
How it was run: as §1

[15] = tested on: horseweed; test: Test C postemergence; type: in vivo, Erigeron canadensis; conditions: 10 days
How it was run: as §1

[16] = tested on: kochia; test: Test C preemergence; type: in vivo, Bassia scoparia; conditions: 0 to 100 scale (0 no effect, 100 complete control); for Plant response rating, Kochia: Preemergence, 500 g ai/ha, visual rating after 10 days; for Kochia plant response rating: Test C, preemergence, 125 g ai/ha
How it was run: as §1

[17] = tested on: green foxtail; test: Test C postemergence; type: in vivo, Setaria viridis; conditions: 10 days
How it was run: as §1

[18] = tested on: ryegrass, Italian; test: Test C preemergence; type: in vivo, Lolium multiflorum; conditions: 0 to 100 scale (0 no effect, 100 complete control); for Plant response rating, Ryegrass, Italian: Preemergence, 500 g ai/ha, visual rating after 10 days; for Ryegrass, Italian plant response rating: Test C, preemergence, 125 g ai/ha
How it was run: as §1

[19] = tested on: barnyardgrass; test: Test D flooded paddy test; type: in vivo, Echinochloa crus-galli; conditions: 250 g ai/ha, applied to paddy water, visual rating after 13 to 14 days, scale 0 to 100 (0 no effect, 100 complete control)
How it was run: as §2

[20] = tested on: galium; test: Test C postemergence; type: in vivo, Galium aparine; conditions: 10 days
How it was run: as §1

[21] = tested on: rice; test: Test D flooded paddy test; type: in vivo, Oryza sativa; conditions: 250 g ai/ha, applied to paddy water, visual rating after 13 to 14 days, scale 0 to 100 (0 no effect, 100 complete control)
How it was run: as §2

[22] = tested on: soybean; test: Test C preemergence; type: in vivo, Glycine max; conditions: 0 to 100 scale (0 no effect, 100 complete control); for Plant response rating, Soybean: Preemergence, 500 g ai/ha, visual rating after 10 days; for Soybean plant response rating: Test C, preemergence, 125 g ai/ha
How it was run: as §1

[23] = tested on: wheat; test: Test C postemergence; type: in vivo, Triticum aestivum; conditions: 10 days
How it was run: as §1

[24] = tested on: oat, wild; test: Test C preemergence; type: in vivo, Avena fatua; conditions: 0 to 100 scale (0 no effect, 100 complete control); for Plant response rating, Oat, Wild: Preemergence, 500 g ai/ha, visual rating after 10 days; for Oat, Wild plant response rating: Test C, preemergence, 125 g ai/ha
How it was run: as §1

[25] = tested on: ragweed; test: Test C preemergence; type: in vivo, Ambrosia artemisiifolia; conditions: 0 to 100 scale (0 no effect, 100 complete control); for Plant response rating, Ragweed: Preemergence, 500 g ai/ha, visual rating after 10 days; for Ragweed plant response rating: Test C, preemergence, 125 g ai/ha
How it was run: as §1

[26] = tested on: barnyardgrass; test: Test C postemergence; type: in vivo, Echinochloa crusgalli; conditions: 10 days
How it was run: as §1

[27] = tested on: soybean; test: Test C postemergence; type: in vivo, Glycine max; conditions: 10 days
How it was run: as §1

[28] = tested on: pigweed, palmer; test: Test C postemergence; type: in vivo, Amaranthus palmeri; conditions: 10 days
How it was run: as §1

[29] = 125 g ai/ha, postemergence, 0 to 100 scale, 0 no effect, 100 complete control
[30] = Postemergence, 500 g ai/ha, visual 0 to 100 scale (0 no effect, 100 complete control)

Structure (SMILES): Cc1cccc2c1O[C@@H](C)CN2C(=O)c1cccc(-n2cnc(C#N)c2)c1 [Compound 233]
- Plant response rating, Corn [1, 29]: 0
- Plant response rating, Corn [1, 30]: 20
- Plant response rating, Ducksalad (Flood) [2]: 0
- Plant response rating, Ryegrass, Italian [3, 29]: 0
- Plant response rating, Ryegrass, Italian [3, 30]: 60
- Plant response rating, Ragweed [4, 29]: 0
- Plant response rating, Ragweed [4, 30]: 20
- Plant response rating, Wheat [5]: 0
- Wheat plant response rating [5]: 0
- Plant response rating, Pigweed, Palmer [6]: 0
- Pigweed, Palmer plant response rating [6]: 0
- Plant response rating, Blackgrass [7]: 30
- Blackgrass plant response rating [7]: 10
- Plant response rating, Oat, Wild [8, 29]: 0
- Plant response rating, Oat, Wild [8, 30]: 20
- Plant response rating, Foxtail, Green [9]: 80
- Foxtail, Green plant response rating [9]: 0
- Plant response rating, Kochia [10, 29]: 0
- Plant response rating, Kochia [10, 30]: 10
- Plant response rating, Corn [11]: 20
- Corn plant response rating [11]: 0
- Plant response rating, Barnyardgrass [12]: 60
- Barnyardgrass plant response rating ([12]; Test C): 0
- Plant response rating, Sedge, Umbrella (Flood) [13]: 0
- Plant response rating, Blackgrass [14, 29]: 0
- Plant response rating, Blackgrass [14, 30]: 40
- Plant response rating, Horseweed [15, 29]: 0
- Plant response rating, Horseweed [15, 30]: 0
- Plant response rating, Kochia [16]: 0
- Kochia plant response rating [16]: 0
- Plant response rating, Foxtail, Green [17, 29]: 20
- Plant response rating, Foxtail, Green [17, 30]: 20
- Plant response rating, Ryegrass, Italian [18]: 60
- Ryegrass, Italian plant response rating [18]: 10
- Plant response rating, Barnyardgrass (Flood) [19]: 0
- Plant response rating, Galium [20, 29]: 50
- Plant response rating, Rice (Flood) [21]: 0
- Plant response rating, Soybean [22]: 10
- Soybean plant response rating [22]: 0
- Plant response rating, Wheat [23, 29]: 10
- Plant response rating, Wheat [23, 30]: 10
- Plant response rating, Oat, Wild [24]: 0
- Oat, Wild plant response rating [24]: 0
- Plant response rating, Ragweed [25]: 70
- Ragweed plant response rating [25]: 0
- Plant response rating, Barnyardgrass [26, 29]: 10
- Plant response rating, Barnyardgrass [26, 30]: 20
- Plant response rating, Soybean [27, 29]: 70
- Plant response rating, Soybean [27, 30]: 80
- Plant response rating, Pigweed, Palmer [28, 29]: 0
- Plant response rating, Pigweed, Palmer [28, 30]: 10

Structure (SMILES): CC(C)c1ncn(-c2cc3c(c(C(=O)N4C[C@H](C)Oc5c(Cl)cccc54)c2)OCCCO3)n1 [Compound 158]
- Plant response rating, Corn [1, 29]: 50
- Plant response rating, Corn [1, 30]: 60
- Plant response rating, Ducksalad (Flood) [2]: 65
- Plant response rating, Ryegrass, Italian [3, 29]: 40
- Plant response rating, Ryegrass, Italian [3, 30]: 70
- Plant response rating, Ragweed [4, 29]: 90
- Plant response rating, Ragweed [4, 30]: 80
- Plant response rating, Wheat [5]: 40
- Wheat plant response rating [5]: 10
- Plant response rating, Pigweed, Palmer [6]: 100
- Pigweed, Palmer plant response rating [6]: 100
- Plant response rating, Blackgrass [7]: 60
- Blackgrass plant response rating [7]: 40
- Plant response rating, Oat, Wild [8, 29]: 30
- Plant response rating, Oat, Wild [8, 30]: 60
- Plant response rating, Foxtail, Green [9]: 100
- Foxtail, Green plant response rating [9]: 100
- Plant response rating, Kochia [10, 29]: 70
- Plant response rating, Kochia [10, 30]: 90
- Plant response rating, Corn [11]: 20
- Corn plant response rating [11]: 0
- Barnyardgrass plant response rating [12]: 60
- Plant response rating, Barnyardgrass [12]: 90
- Plant response rating, Sedge, Umbrella (Flood) [13]: 75
- Plant response rating, Blackgrass [14, 29]: 40
- Plant response rating, Blackgrass [14, 30]: 90
- Plant response rating, Horseweed [15, 29]: 20
- Plant response rating, Horseweed [15, 30]: 20
- Plant response rating, Kochia [16]: 90
- Kochia plant response rating [16]: 70
- Plant response rating, Foxtail, Green [17, 29]: 60
- Plant response rating, Foxtail, Green [17, 30]: 90
- Plant response rating, Ryegrass, Italian [18]: 80
- Ryegrass, Italian plant response rating [18]: 80
- Plant response rating, Barnyardgrass (Flood) [19]: 25
- Plant response rating, Galium [20, 29]: 100
- Plant response rating, Galium [20, 30]: 90
- Plant response rating, Rice (Flood) [21]: 0
- Plant response rating, Soybean [22]: 80
- Soybean plant response rating [22]: 50
- Plant response rating, Wheat [23, 29]: 30
- Plant response rating, Wheat [23, 30]: 70
- Plant response rating, Oat, Wild [24]: 80
- Oat, Wild plant response rating [24]: 20
- Plant response rating, Ragweed [25]: 90
- Ragweed plant response rating [25]: 80
- Plant response rating, Barnyardgrass [26, 29]: 40
- Plant response rating, Barnyardgrass [26, 30]: 70
- Plant response rating, Soybean [27, 29]: 100
- Plant response rating, Soybean [27, 30]: 100
- Plant response rating, Pigweed, Palmer [28, 29]: 80
- Plant response rating, Pigweed, Palmer [28, 30]: 100
